Consider 98 compounds from ChEMBL document CHEMBL1144506, “Fujita-Ban QSAR analysis and CoMFA study of quinoline antagonists of immunostimulatory CpG-oligodeoxynucleotides” (Bioorg Med Chem, 2007).

Usually EC50 stands for the concentration giving half of the maximal effect. Lower therefore signals greater potency.

This test deals with WEHI. Put plainly: Inhibition of CpG-oligodeoxynucleotides-induced immunostimulation in mouse WEHI 231 cells. The conditions noted are these: Mus musculus, WEHI. In kind it is functional, cell-based.
With `Cc1cccc(-c2cc(NCCC3CCCN3C)c3ccccc3n2)c1` (stereo not drawn), the midpoint of the response, the EC50, lay at 14.1 nM.
On to `CN(C)CCNc1cc(-c2ccc(CN3CCN(C)CC3)cc2)nc2ccccc12`, for which the concentration for a half-maximal effect (EC50) was 7.08 nM.
`CN(C)CCCNc1cc(-c2ccc(N3CCN(C)CC3)cc2)nc2ccccc12` had an EC50 of 1 nM.
The compound `CCN1CCCC1CNc1cc(-c2ccc(F)cc2)nc2ccccc12` (stereo not drawn) gave a half-maximal effective concentration (EC50) of 17 nM.
Under `Cc1cccc(-c2cc(NCCCN3CCOCC3)c3ccccc3n2)c1` stands 50.1 nM.
The result for `Cc1cccc(-c2cc(NCCN(C)C)c3ccccc3n2)c1` reads 72.4 nM; that for `CCN1CCCC1CNc1cc(-c2ccc(C)cc2)nc2ccccc12` (stereo not drawn), 21.9 nM.
As for `Fc1ccc(-c2cc(NCCCN3CCOCC3)c3ccccc3n2)cc1`, the midpoint of the response, the EC50, lay at 67.6 nM.
On to `Fc1ccc(-c2cc(NCCCCN3CCCC3)c3ccccc3n2)cc1`, for which the midpoint of the response, the EC50, lay at 20.9 nM.
As for `Fc1ccc(-c2cc(NCCN3CCCC3)c3ccccc3n2)cc1`, the EC50 was 24 nM.
The result for `CN1CCN(c2ccc(-c3cc(NCCCN4CCOCC4)c4ccccc4n3)cc2)CC1` reads 2.19 nM.
The result for `CN1CCN(CCCNc2cc(-c3ccc(CN4CCN(C)CC4)cc3)nc3ccccc23)CC1` reads 6.76 nM.
The result for `Cc1ccc(-c2cc(NCCN(C)C)c3ccccc3n2)cc1` reads 12.3 nM.
`CN1CCCC1CCNc1cc(-c2ccc(F)cc2)nc2ccccc12` (stereo not drawn) showed an EC50 of 13.2 nM.
Under `CN1CCN(c2ccc(-c3cc(NCCC4CCCN4C)c4ccccc4n3)cc2)CC1` (stereo not drawn) stands 2 nM; under `Cc1cccc(-c2cc(NCCCN3CCN(C)CC3)c3ccccc3n2)c1`, 27.5 nM.
The compound `CN(C)CCNc1cc(-c2ccc(N3CCCCC3)cc2)nc2ccccc12` showed an EC50 of 5.37 nM.
The result for `CN(C)CCCNc1cc(-c2ccc(N3CCCCC3)cc2)nc2ccccc12` reads 15.8 nM; that for `CN1CCN(CCNc2cc(-c3ccc(N4CCN(C)CC4)cc3)nc3ccccc23)CC1`, 1.51 nM; that for `CN(C)CCCCNc1cc(-c2ccc(N3CCCCC3)cc2)nc2ccccc12`, 46.8 nM.
`Cc1ccc(-c2cc(NCCCN(C)C)c3ccccc3n2)cc1` gave an EC50 of 11.5 nM.
Consider `Cc1cccc(-c2cc(NCCCN(C)C)c3ccccc3n2)c1`, for which a half-maximal effect (EC50) was put at 13.2 nM.
In turn, `CN1CCN(Cc2cccc(-c3cc(NCCC4CCCN4C)c4ccccc4n3)c2)CC1` (stereo not drawn) had an EC50 of 7.76 nM.
The compound `CN1CCN(c2cc(-c3ccc4ccccc4c3)nc3ccc(-c4ccccc4)cc23)CC1` had an EC50 of 741 nM.
Consider `COc1ccc(-c2cc(NCCN(C)C)c3ccccc3n2)cc1F`, for which the response was half-maximal at 35.5 nM (EC50).
Under `CN(C)CCNc1cc(-c2ccc(C(F)(F)F)cc2)nc2ccc(F)cc12` stands 407 nM; under `CN(C)CCNc1cc(-c2ccccc2F)nc2ccc(F)cc12`, 417 nM; under `c1cc(CNCCN2CCOCC2)cc(-c2cc(NCCCN3CCCC3)c3ccccc3n2)c1`, 537 nM.
The result for `Cc1ccccc1-c1cc(NCCCN2CCOCC2)c2ccccc2n1` reads 646 nM; that for `Fc1ccc(-c2cc(NCCN3CCOCC3)c3ccccc3n2)cc1`, 417 nM; that for `CN(C)CCNc1cc(-c2cccc(F)c2)nc2cc(C(F)(F)F)ccc12`, 550 nM.
The result for `CN1CCN(c2ccc(-c3cc(NCCN4CCOCC4)c4ccccc4n3)cc2)CC1` reads 3.31 nM.
In turn, `c1ccc2cc(-c3cc(NCCCN4CCOCC4)c4ccccc4n3)ccc2c1` gave a half-maximal effective concentration (EC50) of 3.55 nM.
The result for `CN(C)CCNc1cc(-c2ccc3ccccc3c2)nc2ccc(-c3ccccc3)cc12` reads 6.46 nM; that for `Cc1ccc(-c2cc(NCCCN3CCCC3)c3ccccc3n2)cc1`, 105 nM.
Consider `CN(C)CCCCNc1cc(-c2ccccc2NCCN(C)C)nc2ccccc12`, for which the EC50 was 5.89 nM.
On to `Cc1cccc(-c2cc(NCCN3CCOCC3)c3ccccc3n2)c1`, for which the half-maximal effective concentration (EC50) was 646 nM.
The result for `CN(C)CCNc1ccccc1-c1cc(NCCN(C)C)c2ccccc2n1` reads 6.46 nM; that for `Cc1ccc(-c2cc(Nc3ccc(O)cc3)c3ccccc3n2)cc1`, 151 nM.
The result for `CN(C)CCNc1cc(-c2ccccc2Cl)nc2ccccc12` reads 162 nM; that for `CN(C)CCNc1cc(-c2ccccc2N2CCN(C)CC2)nc2ccccc12`, 38.9 nM; that for `COc1ccc(-c2cc(NCCN(C)C)c3ccc(C(F)(F)F)cc3n2)cc1F`, 407 nM.
The result for `Cc1ccc(-c2cc(NCCN3CCOCC3)c3ccccc3n2)cc1` reads 490 nM; that for `CN(C)CCCNc1cc(-c2ccccc2F)nc2ccccc12`, 107 nM.
Consider `Cc1ccc(-c2cc(Nc3cc(CN4CCCC4)c(O)c(CN4CCCC4)c3)c3ccccc3n2)cc1`, for which the EC50 was 1.78 nM.
The result for `CN1CCCC1CCNc1cc(-c2ccc3ccccc3c2)nc2ccccc12` (stereo not drawn) reads 2.04 nM.
Under `CN(C)CCNc1cc(-c2ccccc2Cl)nc2ccc(Cl)cc12` stands 468 nM.
For the compound `c1cc(CNCCCN2CCOCC2)cc(-c2cc(NCCN3CCOCC3)c3ccccc3n2)c1`, it took 12 nM to reach a half-maximal effect (EC50).
Under `CN(C)CCCNc1cc(-c2cccc(CNCCCN3CCOCC3)c2)nc2ccccc12` stands 52.5 nM.
As for `CN(C)CCCCCNc1cc(-c2ccc(F)cc2)nc2ccccc12`, the EC50 is 15.5 nM.
Under `CN1CCN(c2ccc(-c3cc(NCCN4CCCC4)c4ccccc4n3)cc2)CC1` stands 2.4 nM.
`CCN1CCCC1CNc1cc(-c2ccc3ccccc3c2)nc2ccccc12` (stereo not drawn) gave a half-maximal effective concentration (EC50) of 5.37 nM.
The result for `c1ccc2cc(-c3cc(NCCCN4CCCC4)c4ccccc4n3)ccc2c1` reads 13.5 nM; that for `CN1CCN(CCCCNc2cc(-c3ccc(N4CCN(C)CC4)cc3)nc3ccccc23)CC1`, 4.9 nM.
Compound `CN(C)CCNc1cc(-c2ccc(N3CCN(C)CC3)cc2)nc2ccc(Cl)cc12` gave an EC50 of 1.45 nM.
The result for `CN(C)CCCCCCNc1cc(-c2ccc(N3CCN(C)CC3)cc2)nc2ccccc12` reads 1.91 nM; that for `CN(C)CCNc1cc(-c2ccc(F)cc2)nc2ccc(Cl)cc12`, 52.5 nM.
`CN(C)CCNc1cc(-c2ccccc2N2CCN(C)CC2)nc2ccc(F)cc12` gave an EC50 of 13.2 nM.
The result for `CCN(CC)CCNc1cc(-c2cccc(C)c2)nc2ccccc12` reads 22.4 nM; that for `CN(C)CCCCNc1cc(-c2ccc(N3CCN(C)CC3)cc2)nc2ccccc12`, 1.23 nM.
Under `Cc1ccc(-c2cc(Nc3cc(CN4CCN(C)CC4)c(O)c(CN4CCN(C)CC4)c3)c3ccccc3n2)cc1` stands 1.45 nM.
Under `CN1CCN(c2ccc(-c3cc(NCCCCN4CCCC4)c4ccccc4n3)cc2)CC1` stands 5.5 nM.
For `CN1CCN(Cc2cccc(-c3cc(N4CCN(C)CC4)c4ccccc4n3)c2)CC1`, the midpoint of the response, the EC50, lay at 100 nM.
For `CN(C)CCCNc1cc(-c2ccc(CN3CCN(C)CC3)cc2)nc2ccccc12`, the EC50 is 9.12 nM.
Regarding `Cc1ccc(-c2cc(NCCCN3CCOCC3)c3ccccc3n2)cc1`, it took 26.9 nM to reach a half-maximal effect (EC50).
`CN(C)CCNc1cc(-c2ccc(N3CCN(C)CC3)cc2)nc2ccccc12` gave an EC50 of 0.759 nM.
`CN1CCN(Cc2ccc(-c3cc(NCCN4CCCC4)c4ccccc4n3)cc2)CC1` gave an EC50 of 3.24 nM.
Under `CN(C)CCCCCNc1cc(-c2ccc(N3CCN(C)CC3)cc2)nc2ccccc12` stands 1.45 nM; under `CN1CCN(Cc2cc(Nc3cc(-c4ccc(F)cc4)nc4ccccc34)cc(CN3CCN(C)CC3)c2O)CC1`, 1.74 nM.
Under `CCN1CCCC1CNc1cc(-c2cccc(C)c2)nc2ccccc12` (stereo not drawn) stands 21.9 nM; under `Cc1ccc(-c2cc(NCCCN3CCN(C)CC3)c3ccccc3n2)cc1`, 13.8 nM; under `CN(C)CCCNc1cc(-c2ccc3ccccc3c2)nc2ccccc12`, 11 nM.
Take `Oc1c(CN2CCCC2)cc(Nc2cc(-c3ccc4ccccc4c3)nc3ccccc23)cc1CN1CCCC1`: a half-maximal effect (EC50) was put at 1.15 nM.
On to `CN(C)CCNc1cc(-c2ccc(F)cc2)nc2ccccc12`, for which the concentration giving a half-maximal response (EC50) is 51.3 nM.
The result for `CN(C)CCCCNc1cc(-c2ccccc2F)nc2ccccc12` reads 107 nM; that for `CN1CCCC1CCNc1cc(-c2ccccc2F)nc2ccccc12` (stereo not drawn), 204 nM.
Under `Cc1cccc(-c2cc(NCCCCN(C)C)c3ccccc3n2)c1` stands 13.8 nM; under `CN(C)CCCNCc1cccc(-c2cc(NCCCN3CCN(C)CC3)c3ccccc3n2)c1`, 525 nM.
As to `CN1CCN(c2ccccc2-c2cc(N3CCN(C)CC3)c3ccccc3n2)CC1`, the response was half-maximal at 132 nM (EC50).
Under `CN1CCN(CCCCNc2cc(-c3ccc(F)cc3)nc3ccccc23)CC1` stands 15.8 nM; under `Cc1ccccc1-c1cc(NCCCN(C)C)c2ccccc2n1`, 186 nM.
For `CN(C)CCNc1cc(-c2ccc(F)cc2)nc2cc(C(F)(F)F)ccc12`, a half-maximal response (EC50) required 490 nM.
The result for `CN(C)CCCNc1cc(-c2cccc(CN3CCN(C)CC3)c2)nc2ccccc12` reads 3.98 nM; that for `Fc1ccc(-c2cc(NCCCN3CCCC3)c3ccccc3n2)cc1`, 191 nM.
`CN1CCN(Cc2ccc(-c3cc(N4CCN(C)CC4)c4ccccc4n3)cc2)CC1` gave a 50% effective concentration (EC50) of 58.9 nM.
The result for `CN(C)CCNc1cc(-c2cccc(F)c2)nc2ccc(F)cc12` reads 282 nM.
Under `COc1ccc(C2C=C(NCCN(C)C)c3cc(F)ccc3N2)c(F)c1` (stereo not drawn) stands 141 nM; under `COc1ccc(-c2cc(NCCN(C)C)c3cc(F)ccc3n2)cc1F`, 79.4 nM; under `CN1CCN(c2ccc(-c3cc(N4CCN(C)CC4)c4ccccc4n3)cc2)CC1`, 2.69 nM.
The result for `CN1CCN(Cc2cccc(-c3cc(NCCCN4CCCC4)c4ccccc4n3)c2)CC1` reads 120 nM; that for `Cc1cccc(-c2cc(NCCCN3CCCC3)c3ccccc3n2)c1`, 195 nM; that for `CN(C)CCCNCc1cccc(-c2cc(NCCN3CCOCC3)c3ccccc3n2)c1`, 155 nM.
On to `CN(C)CCNc1cc(-c2ccc(C(F)(F)F)cc2)nc2ccccc12`, for which the midpoint of the response, the EC50, lay at 155 nM.
Regarding `CN(C)CCNc1cc(-c2ccc3ccccc3c2)nc2ccccc12`, a half-maximal response (EC50) required 9.12 nM.
For `Oc1ccc(Nc2cc(-c3ccc4ccccc4c3)nc3ccccc23)cc1`, the midpoint of the response, the EC50, lay at 316 nM.
For `CN(C)CCCCNc1cc(-c2ccc3ccccc3c2)nc2ccccc12`, the midpoint of the response, the EC50, lay at 3.72 nM.
The result for `CN1CCN(Cc2cc(Nc3cc(-c4ccc5ccccc5c4)nc4ccccc34)cc(CN3CCN(C)CC3)c2O)CC1` reads 0.24 nM; that for `CN(C)CCCCCCNc1cc(-c2ccc3ccccc3c2)nc2ccccc12`, 5.89 nM.
